The source made the active and inactive calls.
How the values were obtained:
[1] = Trypanosoma cruzi growth suppression in host cells – NIH3T3 host cells, beta-gal luminescence, confirmation (AID 2044); assay type: functional, cell-based;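 further: intracellular parasites grown in NIH/3T3 mouse fibroblasts as host cells; luminescent beta-galactosidase reporter signal from transgenic T. cruzi replicating inside host cells; inhibitors lower the luminescence signal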
[2] = cells; assay type: functional, cell-based
[3] = non-specific 3'UTR reporter inhibition in Clone20-Shn3RL – cell-based, Renilla luciferase, cherry-picked, counter-screen for Shn3 inhibitor project, dose response (AID 624133); assay type: functional
[4] = cells; assay type: functional, cell-based; remark: listed apart in the source
[5] = target: T1, Microphthalmia-associated transcription factor (Homo sapiens, UniProt O75030); test: reducers of TRPM1 reporter luminescence, concentration series – cell-based, SK-MEL-5, cherry-picked, set 3, MITF inhibitor project, dose response (AID 493073); assay type: functional;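 further: SK-MEL-5 melanoma cells with luciferase driven by the MITF target TRPM1 promoter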
T1 sequence (O75030 whole entry): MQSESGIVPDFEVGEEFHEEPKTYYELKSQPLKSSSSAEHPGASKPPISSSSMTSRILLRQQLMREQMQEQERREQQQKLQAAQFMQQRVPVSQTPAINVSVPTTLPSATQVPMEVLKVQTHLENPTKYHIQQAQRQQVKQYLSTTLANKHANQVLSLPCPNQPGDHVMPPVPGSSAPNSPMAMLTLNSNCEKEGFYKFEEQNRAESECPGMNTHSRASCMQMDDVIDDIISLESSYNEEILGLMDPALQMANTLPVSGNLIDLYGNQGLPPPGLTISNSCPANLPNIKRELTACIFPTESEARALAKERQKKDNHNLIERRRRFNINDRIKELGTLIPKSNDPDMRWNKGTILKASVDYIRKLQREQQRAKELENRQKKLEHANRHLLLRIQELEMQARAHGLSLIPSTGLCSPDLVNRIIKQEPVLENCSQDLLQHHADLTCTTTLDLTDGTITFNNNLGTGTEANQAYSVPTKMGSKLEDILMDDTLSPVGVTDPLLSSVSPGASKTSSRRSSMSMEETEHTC

[6] = loss of viability in HepG2 cells – cell-based, CellTiter-Glo, cherry-picked, cytotoxicity control for Shn3 inhibitor project, dose response (AID 624134); assay type: functional
[7] = tested on: HT-1080; test: HT1080 cell viability loss – fluorescence readout (AID 620); assay type: functional, cell-based; settings: Homo sapiens
[8] = tested on: A-375; test: proliferation inhibition in MITF-low A375 cells – cell-based, cherry-pick samples, set 2, counter-screen for MITF modulator project, dose response (AID 540335); assay type: functional; settings: Homo sapiens
[9] = target: T2, Luciferin 4-monooxygenase (Photinus pyralis, UniProt P08659); test: Counter Screen for Luciferase-based Assay Positives. [Related pubchem assays: 620, 618, 411 ]
[10] = reduction of Shn3 3'UTR-driven luciferase in osteoblasts – cell-based, Clone20 osteoblasts, firefly luciferase, cherry-picked, dose response (AID 624132); assay type: functional;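 further: firefly luciferase luminescence from reporter carrying the Shn3 3'UTR in osteoblasts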
[11] = NIH3T3 cell viability loss – ATP luminescence, mouse fibroblasts, counter-screen, dose response (AID 2010); assay type: functional, cell-based;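 further: cells exposed to compound for about 90 hours before reading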
[12] = target: Nonstructural protein 1 (Influenza A virus, UniProt Q194T2); assay type: functional, Influenza A virus (A/California/07/2009(H1N1))
[13] = target: T3, Protein RecA (Mycobacterium tuberculosis, UniProt P9WHJ3); test: Fluorescence Cell-Free Homogeneous Dose Retest to Identify Inhibitors of RecA-Intein Splicing Activity. [Related pubchem assays (depositor defined):AID2097, AID2223, AID489010, AID492950]; assay type: functional
T3 sequence (P9WHJ3 whole entry): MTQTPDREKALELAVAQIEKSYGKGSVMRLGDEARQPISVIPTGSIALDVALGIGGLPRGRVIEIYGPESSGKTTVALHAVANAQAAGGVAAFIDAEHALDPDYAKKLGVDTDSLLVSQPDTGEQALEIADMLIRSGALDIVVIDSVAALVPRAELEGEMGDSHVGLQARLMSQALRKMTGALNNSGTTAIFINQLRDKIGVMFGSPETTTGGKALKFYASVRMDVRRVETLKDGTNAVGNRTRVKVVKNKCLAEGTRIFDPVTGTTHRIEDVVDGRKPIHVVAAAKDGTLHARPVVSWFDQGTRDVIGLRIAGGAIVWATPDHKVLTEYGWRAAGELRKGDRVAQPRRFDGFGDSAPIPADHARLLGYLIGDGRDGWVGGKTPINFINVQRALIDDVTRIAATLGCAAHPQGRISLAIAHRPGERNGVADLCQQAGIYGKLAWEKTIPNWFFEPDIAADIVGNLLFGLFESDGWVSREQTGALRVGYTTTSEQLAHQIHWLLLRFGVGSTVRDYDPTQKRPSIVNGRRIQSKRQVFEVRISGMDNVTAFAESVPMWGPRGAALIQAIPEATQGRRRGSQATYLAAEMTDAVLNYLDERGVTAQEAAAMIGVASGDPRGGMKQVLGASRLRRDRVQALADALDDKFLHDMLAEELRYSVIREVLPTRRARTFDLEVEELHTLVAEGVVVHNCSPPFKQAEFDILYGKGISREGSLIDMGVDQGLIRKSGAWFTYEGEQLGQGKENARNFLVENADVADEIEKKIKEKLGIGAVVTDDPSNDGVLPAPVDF

[14] = tested on: A-375; test: MITF: Counter assay: A375 proliferation Measured in Cell-Based System Using Plate Reader - 2084-03_Inhibitor_Dose_DryPowder_Activity. [Related pubchem assays (depositor defined):AID488944]; assay type: functional; settings: Homo sapiens
[15] = target: T4, Coagulation factor XII (Homo sapiens, UniProt P00748); assay type: functional;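 further: activated factor XIIa alpha cleaving a fluorogenic AMC peptide substrate; inhibitor potency from loss of enzyme activity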
T4 sequence (P00748 whole entry): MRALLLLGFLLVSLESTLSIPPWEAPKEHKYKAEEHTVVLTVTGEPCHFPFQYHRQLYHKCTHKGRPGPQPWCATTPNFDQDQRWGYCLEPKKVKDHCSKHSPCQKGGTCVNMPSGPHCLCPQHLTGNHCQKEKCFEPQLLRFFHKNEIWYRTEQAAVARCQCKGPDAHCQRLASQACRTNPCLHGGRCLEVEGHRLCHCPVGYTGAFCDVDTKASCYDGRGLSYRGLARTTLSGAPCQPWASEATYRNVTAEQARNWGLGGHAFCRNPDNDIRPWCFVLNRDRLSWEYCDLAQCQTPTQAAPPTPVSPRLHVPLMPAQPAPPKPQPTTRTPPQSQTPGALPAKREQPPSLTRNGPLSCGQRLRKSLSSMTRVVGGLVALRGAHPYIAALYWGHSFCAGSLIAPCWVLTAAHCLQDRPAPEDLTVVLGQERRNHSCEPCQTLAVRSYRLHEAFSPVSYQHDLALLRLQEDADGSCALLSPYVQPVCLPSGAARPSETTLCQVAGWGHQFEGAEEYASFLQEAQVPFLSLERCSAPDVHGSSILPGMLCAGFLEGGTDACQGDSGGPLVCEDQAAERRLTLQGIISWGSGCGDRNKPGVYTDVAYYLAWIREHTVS

[16] = target: T5, Replicative DNA helicase DnaB (Mycobacterium tuberculosis, UniProt P9WMR3); test: DnaB intein splicing inhibitors, dose response, biochemical, cell-free fluorescence (AID 449749); assay type: functional
T5 sequence (P9WMR3 whole entry): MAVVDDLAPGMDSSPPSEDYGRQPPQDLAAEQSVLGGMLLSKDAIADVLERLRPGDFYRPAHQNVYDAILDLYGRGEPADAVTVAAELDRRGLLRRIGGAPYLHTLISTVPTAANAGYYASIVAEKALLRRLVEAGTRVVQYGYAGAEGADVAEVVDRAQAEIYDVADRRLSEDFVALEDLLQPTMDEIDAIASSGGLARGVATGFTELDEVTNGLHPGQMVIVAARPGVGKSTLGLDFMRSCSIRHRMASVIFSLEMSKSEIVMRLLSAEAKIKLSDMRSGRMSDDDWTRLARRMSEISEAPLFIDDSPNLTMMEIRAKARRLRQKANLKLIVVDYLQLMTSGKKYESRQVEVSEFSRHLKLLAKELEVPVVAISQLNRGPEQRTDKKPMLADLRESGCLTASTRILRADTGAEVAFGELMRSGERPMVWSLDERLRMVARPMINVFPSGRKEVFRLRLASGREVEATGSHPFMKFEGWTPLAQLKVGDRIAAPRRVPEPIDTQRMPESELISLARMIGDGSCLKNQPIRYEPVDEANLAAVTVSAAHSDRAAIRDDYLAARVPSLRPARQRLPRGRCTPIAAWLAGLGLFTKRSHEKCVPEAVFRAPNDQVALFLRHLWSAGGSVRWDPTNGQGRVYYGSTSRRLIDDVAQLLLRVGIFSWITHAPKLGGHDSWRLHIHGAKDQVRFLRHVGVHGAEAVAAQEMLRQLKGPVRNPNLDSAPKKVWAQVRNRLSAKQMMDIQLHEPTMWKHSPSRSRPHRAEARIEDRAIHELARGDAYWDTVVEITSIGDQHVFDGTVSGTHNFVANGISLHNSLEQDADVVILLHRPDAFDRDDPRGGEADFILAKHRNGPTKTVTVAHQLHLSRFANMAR

[17] = tested on: Escherichia coli; test: microbe, parasite or virus in culture
[18] = acridine orange displacement from DNA – biochemical, fluorescence polarization, cherry-pick, artefact control for RAD54 inhibitor project, dose response (AID 651673); assay type: functional
[19] = target: T6, DNA repair and recombination protein RAD54-like (Homo sapiens, UniProt Q92698); test: RAD54 Holliday junction migration blockers – biochemical, fluorescence, cherry-picked samples, dose series, confirmation (AID 651657); assay type: functional
T6 sequence (Q92698 whole entry): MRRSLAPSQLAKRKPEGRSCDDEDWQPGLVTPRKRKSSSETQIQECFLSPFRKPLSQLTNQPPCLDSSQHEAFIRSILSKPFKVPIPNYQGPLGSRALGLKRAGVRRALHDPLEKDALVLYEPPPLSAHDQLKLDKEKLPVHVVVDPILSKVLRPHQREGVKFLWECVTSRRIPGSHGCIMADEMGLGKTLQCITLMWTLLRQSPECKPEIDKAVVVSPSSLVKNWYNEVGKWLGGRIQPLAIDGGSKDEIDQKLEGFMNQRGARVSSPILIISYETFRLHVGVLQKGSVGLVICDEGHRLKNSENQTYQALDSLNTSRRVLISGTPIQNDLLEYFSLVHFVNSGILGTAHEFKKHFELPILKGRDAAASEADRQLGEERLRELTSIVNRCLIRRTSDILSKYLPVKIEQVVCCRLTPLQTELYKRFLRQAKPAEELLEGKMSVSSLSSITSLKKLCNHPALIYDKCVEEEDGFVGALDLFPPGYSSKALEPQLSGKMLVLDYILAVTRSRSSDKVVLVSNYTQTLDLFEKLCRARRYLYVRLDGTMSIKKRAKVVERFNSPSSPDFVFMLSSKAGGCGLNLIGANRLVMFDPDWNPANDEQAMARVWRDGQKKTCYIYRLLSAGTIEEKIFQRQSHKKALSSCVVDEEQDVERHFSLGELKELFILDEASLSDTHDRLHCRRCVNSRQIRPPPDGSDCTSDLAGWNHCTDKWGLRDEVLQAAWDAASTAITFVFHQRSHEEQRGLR

[20] = target: Dual specificity tyrosine-phosphorylation-regulated kinase 1A (Rattus norvegicus, UniProt Q63470); assay type: biochemical, Homo sapiens
[21] = target: Trypsin (Sus scrofa, UniProt P00761); test: trypsin protease activity blockade – biochemical, quenched peptide fluorescence, cherry-pick, selectivity assay for Rce1 protease inhibitor project, dose response (AID 488789)
[22] = Luminescence Cell-Based Dose Confirmation HTS to Identify Inhibitors of Platelet Dense Granule Release. [Related pubchem assays: 1663 (Primary HTS), 1678 (Summary of Project)]; assay type: functional
[23] = target: CAAX prenyl protease 2 (Homo sapiens, UniProt Q9Y256); test: inhibition of Ras-converting CAAX protease Rce1 – biochemical, yeast membranes, quenched-peptide fluorescence, cherry-pick, dose response (AID 588849)
[24] = target: CAAX prenyl protease 1 (Saccharomyces cerevisiae S288c, UniProt P47154); test: yeast CAAX protease Ste24 inhibition – biochemical, S. cerevisiae, plate reader, cherry-pick, dose response (AID 488815)
[25] = target: T2, Luciferin 4-monooxygenase; test: inhibition of purified Photinus pyralis luciferase – biochemical, luminescence, dose response (AID 1891)
[26] = target: Dual specificity protein phosphatase 3 (Homo sapiens, UniProt P51452); test: SAR VHR1 Fluorescent Assay for In Vitro dose response studies Set 3. [Related pubchem assays (depositor defined):AID1654, AID1661, AID1878]; assay type: functional
Dual specificity protein phosphatase 3, sequence (P51452 whole entry): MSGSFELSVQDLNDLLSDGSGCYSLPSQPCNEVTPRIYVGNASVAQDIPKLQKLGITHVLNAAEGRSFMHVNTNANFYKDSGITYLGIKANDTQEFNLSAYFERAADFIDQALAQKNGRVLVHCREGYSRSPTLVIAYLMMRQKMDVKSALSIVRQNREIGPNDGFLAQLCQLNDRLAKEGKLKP

T2 sequence (P08659 whole entry): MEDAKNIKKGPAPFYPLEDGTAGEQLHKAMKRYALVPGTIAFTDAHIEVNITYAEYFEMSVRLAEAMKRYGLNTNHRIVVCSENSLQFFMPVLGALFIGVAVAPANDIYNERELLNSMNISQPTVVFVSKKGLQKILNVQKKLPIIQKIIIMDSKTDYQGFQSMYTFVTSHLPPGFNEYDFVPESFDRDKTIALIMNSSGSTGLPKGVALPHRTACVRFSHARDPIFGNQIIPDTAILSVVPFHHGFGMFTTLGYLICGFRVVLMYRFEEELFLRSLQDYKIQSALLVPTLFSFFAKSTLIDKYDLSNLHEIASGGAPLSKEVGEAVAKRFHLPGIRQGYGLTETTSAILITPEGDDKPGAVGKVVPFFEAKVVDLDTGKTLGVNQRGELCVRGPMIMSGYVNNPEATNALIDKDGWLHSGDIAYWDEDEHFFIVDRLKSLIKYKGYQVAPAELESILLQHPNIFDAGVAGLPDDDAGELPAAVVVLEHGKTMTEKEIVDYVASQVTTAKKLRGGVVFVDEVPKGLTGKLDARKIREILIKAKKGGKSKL
Nonstructural protein 1, sequence (Q194T2 whole entry): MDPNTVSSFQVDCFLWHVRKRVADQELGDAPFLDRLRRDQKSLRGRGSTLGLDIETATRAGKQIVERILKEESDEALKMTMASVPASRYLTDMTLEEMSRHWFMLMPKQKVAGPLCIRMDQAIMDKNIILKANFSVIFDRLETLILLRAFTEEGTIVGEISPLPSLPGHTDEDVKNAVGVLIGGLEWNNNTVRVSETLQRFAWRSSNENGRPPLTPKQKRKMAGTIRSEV
CAAX prenyl protease 2, sequence (Q9Y256 whole entry): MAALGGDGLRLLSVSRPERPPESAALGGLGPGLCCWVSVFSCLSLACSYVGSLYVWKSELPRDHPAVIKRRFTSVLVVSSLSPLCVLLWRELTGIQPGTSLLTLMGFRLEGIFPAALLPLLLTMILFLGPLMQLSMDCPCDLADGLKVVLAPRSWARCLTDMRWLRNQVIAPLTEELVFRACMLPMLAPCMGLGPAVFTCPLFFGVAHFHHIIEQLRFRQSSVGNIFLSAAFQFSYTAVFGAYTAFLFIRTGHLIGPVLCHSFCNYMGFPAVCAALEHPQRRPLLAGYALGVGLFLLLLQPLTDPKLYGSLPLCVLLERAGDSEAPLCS
Trypsin, sequence (P00761 whole entry): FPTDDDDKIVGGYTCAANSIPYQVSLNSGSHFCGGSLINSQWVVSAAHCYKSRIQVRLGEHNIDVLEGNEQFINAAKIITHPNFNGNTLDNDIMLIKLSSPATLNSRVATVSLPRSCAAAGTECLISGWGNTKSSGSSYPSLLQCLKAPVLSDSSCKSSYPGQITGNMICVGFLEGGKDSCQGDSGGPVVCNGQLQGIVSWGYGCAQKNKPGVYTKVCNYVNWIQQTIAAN
CAAX prenyl protease 1, sequence (P47154 whole entry): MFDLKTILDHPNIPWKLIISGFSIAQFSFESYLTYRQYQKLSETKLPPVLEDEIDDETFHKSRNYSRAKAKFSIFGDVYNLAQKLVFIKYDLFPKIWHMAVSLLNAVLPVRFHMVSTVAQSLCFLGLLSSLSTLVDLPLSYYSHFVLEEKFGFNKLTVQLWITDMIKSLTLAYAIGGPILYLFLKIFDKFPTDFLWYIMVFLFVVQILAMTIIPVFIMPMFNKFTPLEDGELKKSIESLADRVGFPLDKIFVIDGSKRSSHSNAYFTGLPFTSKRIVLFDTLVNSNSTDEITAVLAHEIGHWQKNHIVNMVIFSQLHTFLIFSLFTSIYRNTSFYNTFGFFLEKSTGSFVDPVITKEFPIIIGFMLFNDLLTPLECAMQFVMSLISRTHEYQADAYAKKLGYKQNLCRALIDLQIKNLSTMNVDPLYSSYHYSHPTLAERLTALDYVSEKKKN

Structure (SMILES): Oc1c(CN2CCCCC2)cc(COCc2ccccc2)c2cccnc12
- EC50 [1]: 4.04 µM (active)
- EC50 [2]: 7.62 µM (active)
- AC50 [3]: 7.15 µM (active)
- EC50 [4]: > 350 µM (not active)
- AC50 [5]: 2.17 µM (active)
- AC50 [6]: 10.8 µM (active)
- EC50 [7]: 27.9 µM (active)
- AC50 [8]: 13.5 µM (active)
- EC50 [9]: > 100 µM (not active)
- AC50 [10]: 0.537 µM (active)
- EC50 [11]: 6.52 µM (active)
- IC50 [12]: 1.86 µM (active)

Structure (SMILES): O=c1c(Cl)c(Cl)cnn1Cc1ccc(F)cc1
- AC50 [5]: 8.9 µM (active)
- EC50 [13]: 11.3 µM (active)
- AC50 [14]: 30.8 µM (active)
- IC50 [15]: > 50 µM (inactive)
- AC50 [16]: 39.5 µM (active)

Structure (SMILES): COc1ccccc1C(C[N+](=O)[O-])c1c[nH]c2ccccc12 (centres undefined)
- AC50 [17]: 90.9 µM (active)

Structure (SMILES): COc1ccc2cc3cc(C(=O)NCCCN4CCOCC4)oc3nc2c1
- EC50 [1]: 2.2 µM (active)
- AC50 [18]: 55.3 µM (active)
- AC50 [19]: 36.7 µM (active)
- AC50 [20]: 5.51 µM (active)
- EC50 [11]: > 60 µM (not active)

Structure (SMILES): CCn1c(-c2cccs2)nc2ccccc21
- AC50 [21]: 6.83 µM (active)
- EC50 [22]: > 112 µM (not active)
- AC50 [23]: 11.6 µM (active)
- AC50 [24]: 2.54 µM (active)
- EC50 [25]: > 112 µM (not active)

Structure (SMILES): CSc1ccc2nc(Nc3nnc(-c4ccc5c(c4)OCCO5)o3)sc2c1
- IC50 [26]: 0.682 µM (active)
